# Data published in the supplement of paper PMC10307832.
# Legend:
# [1] = compound: CC(C)C[C@H](NC(=O)[C@H](CCc1ccccc1)NC(=O)CN1CCOCC1)C(=O)N[C@@H](Cc1ccccc1)C(=O)N[C@@H](CC(C)C)C(=O)[C@@]1(C)CO1 [Carfilzomib] + CC(=O)c1c(C)c2cnc(Nc3ccc(N4CCNCC4)cn3)nc2n(C2CCCC2)c1=O [Palbociclib] (partner 0.5 µM); test: relative viability (nuclei count vs DMSO), 5 days (fraction); higher = more cells survive
# In short: (§1)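 The day after seeding in 1536-well plates, lung cancer cell lines were treated by pin tool with a single drug, or with a fixed anchor-drug dose together with five library-drug doses (not always all listed) in √10 steps. After 5 days, a combined fix-and-stain solution (final 0.05% Triton X-100, 1% formaldehyde, 1 ug/ml Hoechst) was added. Nuclei counted on 4× images gave relative viability as treated counts over vehicle counts, reported as the median of duplicate plates.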
# Carfilzomib + Olaparib = compound: CC(C)C[C@H](NC(=O)[C@H](CCc1ccccc1)NC(=O)CN1CCOCC1)C(=O)N[C@@H](Cc1ccccc1)C(=O)N[C@@H](CC(C)C)C(=O)[C@@]1(C)CO1 [Carfilzomib] + O=C(c1cc(Cc2n[nH]c(=O)c3ccccc23)ccc1F)N1CCN(C(=O)C2CC2)CC1 [Olaparib] (partner 8 µM); test: as above
# In short: as §1
Cell Line,relative viability ([1]; first compound 0.001 µM),relative viability ([1]; first compound 0.003162 µM),relative viability ([1]; first compound 0.01 µM),relative viability ([1]; first compound 0.03162 µM),relative viability ([1]; first compound 0.1 µM),relative viability (Carfilzomib + Olaparib; first compound 0.001 µM),relative viability (Carfilzomib + Olaparib; first compound 0.003162 µM),relative viability (Carfilzomib + Olaparib; first compound 0.01 µM),relative viability (Carfilzomib + Olaparib; first compound 0.03162 µM),relative viability (Carfilzomib + Olaparib; first compound 0.1 µM)
201T,0.355,0.357,0.383,0.345,0.31,0.83,0.838,0.856,0.907,0.546
A549,,,,,,0.344,0.301,0.405,0.0248,0.0273
A-427,0.543,0.56,0.515,0.509,0.188,0.782,0.827,0.749,0.271,0.147
ABC-1,0.831,0.736,0.441,0.273,0.253,0.768,0.846,0.348,0.324,0.26
BEN,0.491,0.465,0.455,0.499,0.319,1.02,1.29,1.18,1.03,0.376
CAL-12T,0.507,0.507,0.586,0.165,0.145,0.765,0.744,0.702,0.265,0.145
COR-L23,0.29,0.305,0.211,0.0606,0.064,0.392,0.435,0.36,0.0646,0.0712
COR-L 105,0.413,0.414,0.35,0.317,0.329,0.704,0.735,0.716,0.465,0.301
Calu-6,,,,,,0.52,0.628,0.504,0.0906,0.0789
ChaGo-K-1,0.926,0.931,0.907,0.313,0.153,0.447,0.409,0.392,0.172,0.142
EBC-1,,,,,,0.721,0.63,0.191,0.0599,0.082
EKVX,0.369,0.474,0.427,,0.137,0.854,0.908,1.02,,0.231
EMC-BAC-2,0.531,0.539,0.51,0.455,0.316,0.484,0.454,0.561,0.411,0.249
EPLC-272H,0.285,0.337,0.317,0.114,0.0482,0.825,0.864,0.302,0.0584,0.0607
H3255,0.334,0.331,0.309,0.231,0.264,0.565,0.609,0.668,0.402,0.235
HARA,0.28,0.257,0.306,0.182,0.0965,1.25,0.943,1.2,0.0637,0.0917
HCC-15,0.706,0.688,0.751,0.61,0.206,0.73,0.771,0.75,0.551,0.166

Cell Line,relative viability ([1]; first compound 0.001 µM),relative viability ([1]; first compound 0.003162 µM),relative viability ([1]; first compound 0.01 µM),relative viability ([1]; first compound 0.03162 µM),relative viability ([1]; first compound 0.1 µM),relative viability (Carfilzomib + Olaparib; first compound 0.001 µM),relative viability (Carfilzomib + Olaparib; first compound 0.003162 µM),relative viability (Carfilzomib + Olaparib; first compound 0.01 µM),relative viability (Carfilzomib + Olaparib; first compound 0.03162 µM),relative viability (Carfilzomib + Olaparib; first compound 0.1 µM)
HCC-44,1.02,0.938,0.999,0.999,0.69,1.07,0.975,0.985,1.03,0.637
HCC-78,0.431,0.454,0.528,0.439,0.348,0.733,0.881,0.844,0.552,0.233
HCC-366,0.374,0.361,0.396,0.327,0.0404,0.364,0.39,0.362,0.311,0.0358
HCC-827,0.499,0.459,0.72,0.459,0.159,0.671,0.619,0.712,0.643,0.108
HOP-62,0.44,0.496,0.41,0.19,0.0616,0.399,0.397,0.443,,0.0477
IA-LM,,,,,,1.06,0.779,0.738,0.0714,0.0425
LC-2-ad,0.549,0.495,0.488,0.481,0.32,0.673,0.715,0.667,0.637,0.237
LCLC-97TM1,0.217,0.214,0.24,0.0666,0.0679,0.367,0.527,0.318,0.0498,0.0493
LCLC-103H,0.415,0.47,0.465,0.494,0.416,0.733,0.781,0.793,0.428,0.354
LK-2,0.661,0.659,0.846,0.116,0.106,0.646,0.661,0.86,0.149,0.149
LOU-NH91,0.492,0.543,0.514,0.363,0.314,0.923,0.992,0.871,0.34,0.287
LU99A,0.408,0.402,0.439,0.351,0.188,0.287,0.233,0.276,0.168,0.137
LXF-289,0.586,0.582,0.569,0.0924,0.12,1.09,1.19,1.07,0.0687,0.0894
NCI-H23,0.508,0.484,0.429,0.212,0.116,0.365,0.391,0.287,0.0921,0.101
NCI-H322M,0.487,0.475,0.543,0.522,0.37,0.748,0.681,0.771,0.798,0.439
NCI-H358,0.139,0.117,0.114,0.0724,0.0923,0.639,0.692,0.583,0.0792,0.0776
NCI-H441,0.217,0.219,0.178,0.0969,0.155,0.749,0.542,0.288,0.146,0.15
